Assay results reported in patent US11976047B1, “4,5-bis(4-bromo-phenyl)-1-hexyl-2-(2- methoxyphenyl)-1H-imidazole as an antimicrobial compound” (KING FAISAL UNIVERSITY, priority 2023, dated 2024).

Columns and labels:
Assay type in all cases: cell-based
Settings in all cases: after 10, 20, 40 and 60 minutes at all dilutions 1:100, 1:200, 1:400, 1:800 (summary in words)
Staphylococcus aureus = test: Antimicrobial screening by agar dilution, Staphylococcus aureus
Method: (§1) The antimicrobial properties of the 4,5-bis(4-bromo-phenyl)-1-hexyl-2-(2-methoxyphenyl)-1H-imidazole was studied by the method of agar dilution. Test solutions of each compound was prepared in concentration of 1% using dimethylformamide as a solvent then they are diluted in physiological solution to obtain the final experimental dilutions 1:100, 1:200, 1:400, 1:800. The effect of these substances are compared with furacillin in a controlled study. The testing microbes used were gram positive bacteria Staphylococcus aureus, gram negative bacteria Pseudomonas aeruginosa and Escherichia coli and Candida albicans fungi were taken. The experiments used for this survey were meat-pentonlu agar (EPA) for cultivation of bacteria and Saburo environment for fungi. Each experiment used 1 ml of test solution on each plate 500 min. Add 2 drops of emulsified with microbes feel. All experimental samples were taken from the agar after 10, 20, 40, 60 minutes in the environment on the basis of Patrk planted. Bacteria were cultivated at a temperature of 37° C. for 1 day and the mushroom was kept in a thermostat for 2 hours at a temperature of 28° C. in the. Then results were checked.

Escherichia coli = test: Antimicrobial screening by agar dilution, Escherichia coli
Method: as §1

Pseudomonas aeruginosa = test: Antimicrobial screening by agar dilution, Pseudomonas aeruginosa
Method: as §1

Candida albicans = test: Antimicrobial (antifungal) screening by agar dilution, Candida albicans
Method: as §1

CCCCCCn1c(-c2ccccc2OC)nc(-c2ccc(Br)cc2)c1-c1ccc(Br)cc1 [4,5-bis(4-bromo-phenyl)-1-hexyl-2-(2-methoxyphenyl)-1H-imidazole]
highest inhibition activity: inhibition activity, Staphylococcus aureus (Staphylococcus aureus) | inhibition activity, Escherichia coli (Escherichia coli) | inhibition activity, Pseudomonas aeruginosa (Pseudomonas aeruginosa) | inhibition activity, Candida albicans (Candida albicans)
